Measurements from US11273200B2, “Immunotherapy against several tumors including gastrointestinal and gastric cancer” (Immatics Biotechnologies GmbH, priority 2010, dated 2022).

Legend:
CD8+ T cells [1] = test: In vitro immunogenicity of HLA-A*2402 restricted TUMAPs: priming of CD8+ T cells with pMHC/anti-CD28 coated beads (aAPC), multimer staining; assay type: cell-based, human; conditions: HLA-A*2402 peptides, healthy donors, three stimulation cycles; for Wells positive/evaluable [%]: at least 48 wells evaluable; for Donors positive/evaluable [%]: at least four donors evaluable
Source text: (§1) In order to perform in vitro stimulations by artificial antigen presenting cells (aAPC) loaded with peptide-MHC complex (pMHC) and anti-CD28 antibody, we first isolated CD8 T cells from fresh HLA-A*24 leukapheresis products or from HLA-A*2 buffy coats of healthy donors obtained from the Blood Bank Tuebingen.
(§2) CD8 T cells were either directly enriched or PBMCs (peripheral blood mononuclear cells) were isolated first by using standard gradient separation medium (PAA, Colbe, Germany). Isolated CD8 lymphocytes or PBMCs were incubated until use in T-cell medium (TCM) consisting of RPMI-Glutamax (Invitrogen, Karlsruhe, Germany) supplemented with 10% heat inactivated human AB serum (PAN-Biotech, Aidenbach, Germany), 100 U/ml Penicillin/100 μg/ml Streptomycin (Cambrex, Cologne, Germany), 1 mM sodium pyruvate (CC Pro, Oberdorla, Germany), 20 μg/ml Gentamycin (Cambrex). […] Isolation of CD8+ lymphocytes was performed by positive selection using CD8 MicroBeads (Miltenyi Biotec, Bergisch-Gladbach, Germany).
(§3) 800.000 beads/200 μl were coated in 96-well plates in the presence of 600 ng biotin-anti-CD28 plus 200 ng relevant biotin-pMHC (high density beads). […] Half of the medium was then exchanged by fresh TCM supplemented with 80 U/ml IL-2 and incubation was continued for 3-4 days at 37° C. This stimulation cycle was performed for a total of three times.
(§4) In vitro priming of specific multimer+ CD8+ lymphocytes was detected by appropriate gating and by comparing to negative control stimulations.

CD8+ T cells [2] = test: In vitro immunogenicity of HLA-A*0201 restricted TUMAPs: priming of CD8+ T cells with pMHC/anti-CD28 coated beads (aAPC), multimer staining; assay type: cell-based, human; conditions: HLA-A*0201 peptides, healthy donors, three stimulation cycles; for Wells positive/evaluable [%]: at least 48 wells evaluable; for Donors positive/evaluable [%]: at least four donors evaluable
Source text: as §1, §2, §3, §4

[3] = described in other applications by immatics; vaccines IMA901, IMA910; cited from earlier work

| Substance | Wells positive/evaluable [%] (CD8+ T cells [1]) | Donors positive/evaluable [%] (CD8+ T cells [1]) | Wells positive/evaluable [%] (CD8+ T cells [2]) | Donors positive/evaluable [%] (CD8+ T cells [2]) | in vivo reactions [3] |
| --- | --- | --- | --- | --- | --- |
| SYATLLHVL (listed as Homo sapiens) [GPR39-001] | 6% | 50% | – | – | – |
| QYASRFVQL (listed as Homo sapiens) [PLK4-001] | 5% | 60% | – | – | – |
| IYNGKLFDLL (listed as Homo sapiens) [KIF2C-001] | 2% | 17% | – | – | – |
| VYGIRLEHF (listed as Homo sapiens) [NUF2-001] | 50% | 100% | – | – | – |
| YVDPVIT SI (YVDPVITSI; listed as Homo sapiens) [MET-001] | – | – | 42% | 67% | extremely good in vivo reactions |
| TYGNLLDYL (listed as Homo sapiens) [ABL1-001] | 18% | 83% | – | – | – |
| DYAYLREHF (listed as Homo sapiens) [ZNF598-001] | 17% | 83% | – | – | – |
| QYIDKLNEL (listed as Homo sapiens) [CCDC88A-001] | 0% | 0% | – | – | – |
| LYPEVFEKF (listed as Homo sapiens) [ATAD2-003] | 0% | 0% | – | – | – |
| VYNPTPNSL (listed as Homo sapiens) [COL12A1-001] | 0% | 0% | – | – | – |
| LYLENIDEF (listed as Homo sapiens) [POLD3-001] | 7% | 67% | – | – | – |
| YYNAAGFNKL (listed as Homo sapiens) [UQCRB-001] | 24% | 83% | – | – | – |
| SYLQAANAL (listed as Homo sapiens) [COL6A3-001] | 0% | 0% | – | – | – |
| SYNVTSVLF (listed as Homo sapiens) [LCN2-001] | 1% | 17% | – | – | – |
| IFSKIVSLF (listed as Homo sapiens) [EIF2S3-001] | 1% | 17% | – | – | – |
| IYLEVIHNL (listed as Homo sapiens) [DNAJC10-001] | 15% | 50% | – | – | – |
| HYKPTPLYF (listed as Homo sapiens) [SMC4-001] | 10% | 73% | – | – | – |
| KIFDEILVNA (listed as Homo sapiens) [TOP-001] | – | – | 10% | 40% | – |
| VYFSKSEQL (listed as Homo sapiens) [EPHA2-005] | 0% | 0% | – | – | – |

| Substance | Wells positive/evaluable [%] (CD8+ T cells [1]) | Donors positive/evaluable [%] (CD8+ T cells [1]) | Wells positive/evaluable [%] (CD8+ T cells [2]) | Donors positive/evaluable [%] (CD8+ T cells [2]) | in vivo reactions [3] |
| --- | --- | --- | --- | --- | --- |
| VYTTSYQQI (listed as Homo sapiens) [NFYB-001] | 7% | 50% | – | – | – |
| RYLPKGFLNQF (listed as Homo sapiens) [PTK2-001] | 4% | 17% | – | – | – |
| MYMTVSIIDRF (listed as Homo sapiens) [CCNB1-003] | 3% | 33% | – | – | – |
| YYKNIGLGF (listed as Homo sapiens) [RPS11-001] | 3% | 17% | – | – | – |
| LYQILQGIVF (listed as Homo sapiens) [CDC2-001] | 28% | 83% | – | – | – |
| KYNDTFWKEF (listed as Homo sapiens) [HSP90B1-001] | 7% | 50% | – | – | – |
| VYISSLALL (listed as Homo sapiens) [PSMD14-001] | 1% | 17% | – | – | – |
| SYQKVIELF (listed as Homo sapiens) [PBK-001] | 0% | 0% | – | – | – |
| NYEETFPHI (listed as Homo sapiens) [MUC6-001] | 22% | 83% | – | – | – |
| YYYVGFAYL (listed as Homo sapiens) [EIF'3L-001] | 29% | 100% | – | – | – |
| IYPDASLLI (listed as Homo sapiens) [CEA-010] | 3% | 40% | – | – | – |
| SYLELVKSL (listed as Homo sapiens) [SDHC-001] | 3% | 33% | – | – | – |
| KIQEILTQV (listed as Homo sapiens) [IGF2BP3-001] | – | – | 21% | 50% | – |
| NYLLYVSNF (listed as Homo sapiens) [MST1R-001] | 13% | 50% | – | – | – |
| RFLSGIINF (listed as Homo sapiens) [NUF2-002] | 6% | 50% | – | – | – |
| IYAPKLQEF (listed as Homo sapiens) [CCNE2-001] | 0% | 0% | – | – | – |
| SYIIDPLNL (listed as Homo sapiens) [PROM1-001] | 26% | 83% | – | – | – |
| VYTTMAEHF (listed as Homo sapiens) [TSPAN1-002] | 1% | 17% | – | – | – |
| KYLTVKDYL (listed as Homo sapiens) [ATAD2-002] | 1% | 17% | – | – | – |

| Substance | Wells positive/evaluable [%] (CD8+ T cells [1]) | Donors positive/evaluable [%] (CD8+ T cells [1]) | Wells positive/evaluable [%] (CD8+ T cells [2]) | Donors positive/evaluable [%] (CD8+ T cells [2]) | in vivo reactions [3] |
| --- | --- | --- | --- | --- | --- |
| VFIFKGNQF (listed as Homo sapiens) [MMP3-001] | 1% | 11% | – | – | – |
| RYLWATVTI (listed as Homo sapiens) [ASPM-001] | 3% | 17% | – | – | – |
| FYISPVNKL (listed as Homo sapiens) [AVL9-001] | 31% | 100% | – | – | – |
| AYAIIKEEL (listed as Homo sapiens) [ATAD2-001] | 3% | 33% | – | – | – |
| RYLEGTSCI (listed as Homo sapiens) [EPPK1-001] | 1% | 17% | – | – | – |
| RYLPQCSYF (listed as Homo sapiens) [CCND2-001] | 10% | 17% | – | – | – |
| VYIEKNDKL (listed as Homo sapiens) [ERBB3-001] | – | 83% | – | – | – |
| VYKVVGNLL (listed as Homo sapiens) [IQGAP3-001] | 24% | 100% | – | – | – |
| AYPTVKFYF (listed as Homo sapiens) [DNAJC10-002] | 3% | 33% | – | – | – |
| DYTIGFGKF (listed as Homo sapiens) [ITGB4-001] | 20% | 67% | – | – | – |
| VWSDVTPLTF (listed as Homo sapiens) [MMP11-001] | 11% | 33% | – | – | – |
| VYLLNSTTL (listed as Homo sapiens) [CLCN3-001] | 6% | 33% | – | – | – |
| SYNPLWLRI (listed as Homo sapiens) [ASPM-002] | 32% | 67% | – | – | – |
| FYQPKIQQF (listed as Homo sapiens) [FANCI-001] | 1% | 17% | – | – | – |
| SYIDVLPEF (listed as Homo sapiens) [MET-006] | 21% | 67% | – | – | – |
| AYLVYTDRL (listed as Homo sapiens) [PPAP2C-001] | 29% | 83% | – | – | – |
| VYPNWAIGL (listed as Homo sapiens) [SLC6A6-001] | 1% | 17% | – | – | – |
| VFDTAIAHLF (listed as Homo sapiens) [SIAH2-001] | 8% | 50% | – | – | – |
| NYLPFIMEL (listed as Homo sapiens) [UCHL5-001] | 12% | 75% | – | – | – |
